Each compound was assayed against Beta-2 adrenergic receptor (Cavia porcellus, UniProt Q8K4Z4) (assay: Inhibitory concentration against beta-2-adrenergic receptor in isolated guinea pig tracheal strips).
Beta-2 adrenergic receptor (Cavia porcellus, UniProt Q8K4Z4), sequence (Q8K4Z4 whole entry): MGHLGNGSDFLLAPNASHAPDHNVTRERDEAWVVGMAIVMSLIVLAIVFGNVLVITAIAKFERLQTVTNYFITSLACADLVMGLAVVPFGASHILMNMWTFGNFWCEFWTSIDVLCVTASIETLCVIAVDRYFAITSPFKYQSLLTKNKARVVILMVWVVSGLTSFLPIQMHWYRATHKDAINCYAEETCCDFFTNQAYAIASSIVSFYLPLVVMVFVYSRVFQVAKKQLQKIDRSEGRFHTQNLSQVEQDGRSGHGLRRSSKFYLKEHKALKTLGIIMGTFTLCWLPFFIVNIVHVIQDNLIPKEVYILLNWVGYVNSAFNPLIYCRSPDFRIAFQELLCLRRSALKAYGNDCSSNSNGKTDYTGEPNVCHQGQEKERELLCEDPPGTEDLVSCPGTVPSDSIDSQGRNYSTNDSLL

In order of falling IC50:
1. C/C=N/OCC(O)CNC(C)C (centres undefined)  12900 nM
2. CC/C=N/OCC(O)CNC(C)C (centres undefined)  12000 nM
3. CCCO/N=C/C(O)CNC(C)C (centres undefined)  4370 nM
4. C/C=N/OCC(O)CNC(C)(C)C (centres undefined)  4070 nM
5. CCO/N=C/C(O)CNC(C)C (centres undefined)  3310 nM
6. CC/C=N/OCC(O)CNC(C)(C)C (centres undefined)  1550 nM
7. CCO/N=C/C(O)CNC(C)(C)C (centres undefined)  977 nM
8. CC(C)NCC(O)c1ccc(Cl)c(Cl)c1 (centres undefined) [DICHLOROISOPROTERENOL]  977 nM
9. CCCO/N=C/C(O)CNC(C)(C)C (centres undefined)  269 nM

What follows are compounds tested against Beta-1 adrenergic receptor (Rattus norvegicus, UniProt P18090) (assay: Binding affinity against beta-1-adrenergic receptor in rat brain).
Beta-1 adrenergic receptor (Rattus norvegicus, UniProt P18090), sequence (P18090 whole entry): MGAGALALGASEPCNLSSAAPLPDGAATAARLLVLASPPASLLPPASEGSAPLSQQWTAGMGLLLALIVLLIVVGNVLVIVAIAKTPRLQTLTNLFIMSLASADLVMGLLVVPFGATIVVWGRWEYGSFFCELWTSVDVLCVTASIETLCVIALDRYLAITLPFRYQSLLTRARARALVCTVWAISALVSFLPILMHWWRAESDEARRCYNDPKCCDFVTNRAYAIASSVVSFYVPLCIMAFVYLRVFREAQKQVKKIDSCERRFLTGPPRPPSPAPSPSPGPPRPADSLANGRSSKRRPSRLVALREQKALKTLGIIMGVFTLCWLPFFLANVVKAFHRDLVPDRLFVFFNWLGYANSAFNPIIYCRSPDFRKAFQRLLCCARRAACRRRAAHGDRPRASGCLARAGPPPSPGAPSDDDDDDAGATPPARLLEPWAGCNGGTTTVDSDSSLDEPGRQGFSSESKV
Type: tissue-based

In order of falling Ki:
1. CC/C=N/OCC(O)CNC(C)C (centres undefined)  2200 nM
2. C/C=N/OCC(O)CNC(C)C (centres undefined)  1480 nM
3. CCCO/N=C/C(O)CNC(C)C (centres undefined)  1240 nM
4. CCO/N=C/C(O)CNC(C)(C)C (centres undefined)  1080 nM
5. CCO/N=C/C(O)CNC(C)C (centres undefined)  1040 nM
6. C/C=N/OCC(O)CNC(C)(C)C (centres undefined)  760 nM
7. CC/C=N/OCC(O)CNC(C)(C)C (centres undefined)  500 nM
8. CC(C)NCC(O)c1ccc(Cl)c(Cl)c1 (centres undefined) [DICHLOROISOPROTERENOL]  51 nM

These compounds were tested against Beta-2 adrenergic receptor (Bos taurus, UniProt Q28044) (assay: Binding affinity against beta-2-adrenergic receptor in bovine lung).
Beta-2 adrenergic receptor (Bos taurus, UniProt Q28044), sequence (Q28044 whole entry): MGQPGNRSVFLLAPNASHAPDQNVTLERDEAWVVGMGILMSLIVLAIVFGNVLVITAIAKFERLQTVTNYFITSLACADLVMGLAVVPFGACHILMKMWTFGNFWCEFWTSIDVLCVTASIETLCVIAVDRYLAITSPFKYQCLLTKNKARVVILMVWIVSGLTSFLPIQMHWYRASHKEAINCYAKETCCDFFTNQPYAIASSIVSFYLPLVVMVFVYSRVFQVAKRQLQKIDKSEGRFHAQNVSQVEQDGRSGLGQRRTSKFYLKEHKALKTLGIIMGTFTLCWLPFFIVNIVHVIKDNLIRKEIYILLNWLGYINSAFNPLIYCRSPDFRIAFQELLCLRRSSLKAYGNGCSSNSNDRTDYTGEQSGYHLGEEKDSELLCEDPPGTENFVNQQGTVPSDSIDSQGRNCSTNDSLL

In order of rising Ki:
1. CC(C)NCC(O)c1ccc(Cl)c(Cl)c1 (centres undefined) [DICHLOROISOPROTERENOL]  140 nM
2. CC/C=N/OCC(O)CNC(C)(C)C (centres undefined)  1260 nM
3. CCO/N=C/C(O)CNC(C)(C)C (centres undefined)  1400 nM
4. C/C=N/OCC(O)CNC(C)(C)C (centres undefined)  1980 nM
5. CCO/N=C/C(O)CNC(C)C (centres undefined)  3500 nM
6. CC/C=N/OCC(O)CNC(C)C (centres undefined)  4580 nM
7. CCCO/N=C/C(O)CNC(C)C (centres undefined)  5600 nM
8. C/C=N/OCC(O)CNC(C)C (centres undefined)  7200 nM

What follows are compounds tested against Beta-1 adrenergic receptor (Cavia porcellus, UniProt B0FL73) (assay: Inhibitory concentration against beta-1-adrenergic receptor in isolated guinea pig atria).
Beta-1 adrenergic receptor (Cavia porcellus, UniProt B0FL73), sequence (B0FL73 whole entry): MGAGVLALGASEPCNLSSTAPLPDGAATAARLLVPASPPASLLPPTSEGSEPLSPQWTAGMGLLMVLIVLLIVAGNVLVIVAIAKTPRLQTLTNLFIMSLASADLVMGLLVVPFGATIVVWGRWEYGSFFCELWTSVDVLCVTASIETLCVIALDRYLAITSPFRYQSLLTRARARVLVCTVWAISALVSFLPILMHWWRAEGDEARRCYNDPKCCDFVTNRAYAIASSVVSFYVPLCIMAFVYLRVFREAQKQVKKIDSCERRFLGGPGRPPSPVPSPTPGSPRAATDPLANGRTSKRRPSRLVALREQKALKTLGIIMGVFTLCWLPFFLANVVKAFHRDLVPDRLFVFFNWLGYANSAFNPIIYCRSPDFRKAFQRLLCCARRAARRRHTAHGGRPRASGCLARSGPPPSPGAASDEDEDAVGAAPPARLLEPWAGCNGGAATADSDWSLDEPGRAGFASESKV

In order of falling IC50:
1. C/C=N/OCC(O)CNC(C)C (centres undefined)  30200 nM
2. CC/C=N/OCC(O)CNC(C)(C)C (centres undefined)  26300 nM
3. CCCO/N=C/C(O)CNC(C)C (centres undefined)  15500 nM
4. CC/C=N/OCC(O)CNC(C)C (centres undefined)  15500 nM
5. CCO/N=C/C(O)CNC(C)(C)C (centres undefined)  13800 nM
6. C/C=N/OCC(O)CNC(C)(C)C (centres undefined)  13500 nM
7. CCO/N=C/C(O)CNC(C)C (centres undefined)  12300 nM
8. CCCO/N=C/C(O)CNC(C)(C)C (centres undefined)  8320 nM
9. CC(C)NCC(O)c1ccc(Cl)c(Cl)c1 (centres undefined) [DICHLOROISOPROTERENOL]  115 nM

— ChEMBL document CHEMBL1127515, “The [(methyloxy)imino]methyl moiety as a bioisoster of aryl. A novel class of completely aliphatic beta-adrenergic receptor antagonists” (J Med Chem, 1994)
